Values quoted from earlier work as cited in article PMC7804859, “A metabolically stable apelin-17 analog decreases AVP-induced antidiuresis and improves hyponatremia” (Nature Communications, 2021).
Where two headings read alike, the source gives them in different places.

Tested on: anti-K17F serum
Conditions: cited from earlier work; for cross-reactivity with the apelin antiserum: ref De Mota et al, PNAS, 2004
Method: The columns were then treated as described in 207 the paragraph above.

Substance	recognition by antibody directed against K17F	cross-reactivity with the apelin antiserum (pE13F taken as 100%)	cross-reactivity with the apelin antiserum
K16P: K17F after removal of the phenylalanine residue at the extreme end of the C-terminus (KFRRQRPRLSHKGPMP; UniProt Q9ULZ1 61-76, looked up, fragment)	does not recognize	< 0.3%	
angiotensin II (DRVYIHPF; Angiotensin-2; UniProt P01019 25-32, looked up)			Negligible cross-reactivity
angiotensin III (RVYIHPF; Angiotensin-3; UniProt P01019 26-32, looked up)			Negligible cross-reactivity
apelin 36: molecular form of apelin identified in vivo (LVQPRGSRNGPGPWQGGRRKFRRQRPRLSHKGPMPF; Apelin-36; UniProt Q9ULZ1 42-77, looked up)		100%	
neuropeptide Y			Negligible cross-reactivity
